We go through one molecule from patent US20240252456A1, “ORAL COMPOSITION, SKIN COSMETIC AND HAIR COSMETIC” (MARUZEN PHARMACEUTICALS CO., LTD., priority 2021, published 2024).

Assay [1] deals with Normal human dermal fibroblasts (NB1RGB). Description: Type I collagen production promotive action test. It is filed as cell-based. To be noted: 3 days, A/B×100 vs no sample. On the procedure: Normal human dermal fibroblasts (NB1RGB) were cultured using Dulbecco's modified Eagle's medium (DMEM) containing 10% FBS, and then the cells were collected by a trypsin treatment. The collected cells were diluted with DMEM containing 0.25% FBS to a cell density of 1.6×10^5 cells/mL, then seeded with 100 μL per well in a 96-well microplate, and cultured overnight.
After the culturing was completed, 100 μL of the test sample (Sample 1, see Table 6 below for final concentration) dissolved in DMEM containing 0.25% FBS was added to each well, and culturing was performed for 3 days. As a control, culturing was performed in the same manner using DMEM containing 0.25% FBS to which no sample was added. After culturing, the amount of type I collagen in the medium of each well was measured by ELISA method. From the measurement results, the type I collagen production promotion rate (%) was calculated using the following equation.
Type I collagen production promotion rate (%)=A/B×100
Terms in the equation represent the following respective ones. • A: Type I collagen amount with test sample addition • B: Type I collagen amount without sample addition

Assay [2] relates to AQP3 mRNA. As to the kind of experiment: Aquaporin 3 (AQP3) mRNA expression promotive action test. The class given is cell-based, human. The following applies: 100 μmol/L; NHEK, 24 hours, corrected with GAPDH. On the procedure: Normal human neonatal epidermal keratinocytes (NHEK) were precultured using normal human epidermal keratinocyte growth medium (KGM), and the cells were collected by a trypsin treatment. The collected cells were diluted with KGM to a cell density of 15×10^4 cells/mL, then seeded with 2 mL portions in a 6-well plate (30×10^4 cells/well), and cultured overnight under conditions of 37° C. and 5% CO2. After culturing, the medium was replaced with normal human epidermal keratinocyte basal medium (KBM, the above KGM without addition of growth additives (hEGF, BPE, insulin, antibacterial agents, hydrocortisone)), and culturing was further performed for 24 hours.
After culturing for 24 hours, the medium was removed, and 2 mL of the test sample (Sample 1, see Table 17 below for final concentration) dissolved in KBM was added to each well, and culturing was performed under conditions of 37° C. and 5% CO2 for 24 hours. As a control, culturing was performed in the same manner using KBM to which no sample was added. After culturing, the medium was removed, total RNA was extracted using ISOGEN II (available from NIPPON GENE CO., LTD.), each RNA amount was measured using a spectrophotometer, and the total RNA was prepared so as to be 150 ng/μL.
For AQP3 and GAPDH as an internal standard, the expression levels of mRNA were measured using the above total RNA as a template. […]

In assay [3] the test system is Normal human neonatal epidermal keratinocytes (NHEK). As to the kind of experiment: Laminin-332 production promotive action test. The class given is cell-based. To be noted: 25 μmol/L, 48 hours, A/B×100 vs no sample. As to the method:
Normal human neonatal epidermal keratinocytes (NHEK) were precultured in a 75 cm^2 flask using normal human epidermal keratinocyte growth medium (KGM), and the cells were collected by a trypsin treatment. The collected cells were diluted with a medium obtained by removing BPE from KGM (KGM-BPE) to a cell density of 1.0×10^5 cells/mL, then seeded with 500 μL per well in a 24-well plate, and cultured for 1 day.
After the culturing was completed, the medium was removed, and 500 μL of the test sample (Sample 1, see Table 11 below for final concentration) dissolved in KGM-BPE was added to each well, and culturing was performed for 48 hours. As a control, culturing was performed in the same manner using KGM-BPE to which no sample was added. After the culturing was completed, 100 μL of the medium supernatant was transferred to an ELISA plate and adsorbed to the plate at 37° C. for 2 hours, and then the amount of adsorbed laminin-332 was measured by ELISA method. From the obtained measurement results, the laminin-332 production promotion rate (%) was calculated using the following equation.
Laminin-332 production promotion rate (%)=A/B×100
Terms in the equation represent the following respective ones. • A: Laminin-332 amount with test sample addition • B: Laminin-332 without sample addition

Assay [4] deals with AGEs. As to the kind of experiment: Advanced glycation end product (AGEs) decomposition promotive action test. The following applies: preformed AGEs, 37° C., 20 days. As to the method: In a 96-well type I collagen-coated plate (available from AGC Inc.), 100 μL of 0.2M D(−)-ribose solution prepared with PBS(−) buffer solution was added and statically placed at 37° C. for 2 weeks to form AGEs. In addition, the plate in which only the PBS(−) buffer solution was added was statically placed as a negative control in the same manner. After 2 weeks, 100 μL of the test sample (Sample 1, see Table 23 below for final concentration) prepared with PBS (−) buffer solution was added to each of the plates and statically further placed at 37° C. for 20 days. As a positive control, only PBS(−) buffer solution was statically placed in the same manner as substitute for the test sample, and as a negative control, only PBS(−) buffer solution was continued to be statically placed in the same manner. After 20 days, the amount of AGEs was measured by the ELISA method using an anti-AGEs antibody (available from TPANS GENIC INC.), and the AGEs decomposition promotive action was evaluated. From the obtained results, the AGEs decomposition promotion rate (%) was calculated using the following equation.
Terms in the equation represent the following respective ones. • A: Absorbance at wavelength 405 nm in negative control • B: Absorbance at wavelength 405 nm in positive control • C: Absorbance at wavelength 405 nm with test sample addition

On to `O=C(O)CCc1ccc(O)c(O)c1` [Sample 1, 3,4-Dihydroxyhydrocinnamic acid], for which the “Type I collagen production promotion rate” value in assay [1] (15.6 μmol/L) worked out at 107.4%; in assay [1] (62.5 μmol/L) it was 112.8%. In addition, the “AQP3 mRNA expression promotion rate” value in assay [2] worked out at 207.8%. Also, the “Laminin-332 production promotion rate” value in assay [3] was 142. 0%. In addition, the “AGEs decomposition promotion rate” value in assay [4] (125 μmol/L) came out at 37.7%; in assay [4] (500 μmol/L), 39.9%; in assay [4] (2000 μmol/L) it was 34.1%.
